Data published in patent publication US8809391B2, “Agent for treating Parkinson's disease” (OOO “Tomskaya Farmatsevticheskaya Fabrika”, priority 2009, dated 2014).

Assays:
[1] = system: MPTP-induced parkinsonism; assay: Antiparkinson activity in mice after 3 days administration of MPTP (locomotor activity, TruScan); type: in vivo; conditions: for general movement activity (number of movement acts) / movement activity / movement distance / movement speed / number of explored holes / number of rearings / time of exploratory activity: 3 min
Description: (§1) Parkinsonism was induced by single and multiple intraperitoneal administration of MPTP in 30 mg/kg doses in male mice of C57B1/6 strain and Wistar rats.
(§2) Antiparkinson activity of the agents was studied by the degree of hypokinesia and locomotor activity using Truscan apparatus (USA) or by mortality percentage.
Experiments were carried out in male mice of C57B1/6 strain in groups of 10 mice each. Parkinson syndrome was induced by intraperitoneal administration of 30 mg/kg dose of MPTP during 3 days. The agent ((1R,2R,6S)-1a was administered per os in 20 mg/kg and 30 mg/kg doses 24 hours after the last MPTP injection. Hypokinesia was evaluated 1 hour after the agent administration by the degree of locomotor activity using TruScan apparatus (USA) during 3 minutes.
Experiments were carried out in male mice of C57B1/6 strain in groups of 10 mice each. Parkinson syndrome was induced by intraperitoneal administration of 30 mg/kg dose of MPTP daily during 3 days. Agent (1R,2R,6S)-1b with ee 60% in 20 mg/kg dose was administered per os 24 hours after the last MPTP injection. Hypokinesia was evaluated 1.5 hours after MPTP injection by the degree of locomotor activity using TruScan apparatus (USA) during 3 minutes.

[2] = system: MPTP-induced parkinsonism; assay: Antiparkinson activity in mice after single administration of MPTP (locomotor activity, TruScan); type: in vivo; conditions: for general movement activity (number of movement acts) / movement activity / movement distance / movement speed / number of explored holes / number of rearings / time of exploratory activity: single MPTP 30 mg/kg i.p., 1.5 h after MPTP, 3 min; for antiparkinson activity (in words): mice, single administration of MPTP, doses 10 and/or 20 mg/kg per os as stated in the sentence
Description: as §1, §2
(§3) Experiments were carried out in male mice of C57B1/6 strain in groups of 10 mice each. Parkinson syndrome was induced by intraperitoneal administration of 30 mg/kg dose of MPTP, saline was administered to intact control group. The agent was administered per os 15 minutes after the reproduction of Parkinson syndrome. Hypokinesia was evaluated 1.5 hours after MPTP injection by the degree of locomotor activity using TruScan apparatus (USA) during 3 minutes.
as §3, with “agents in 20 mg/kg doses were” for “agent was”
as §3, with “agent in 10 mg/kg and 20 mg/kg doses were” for “agent was”

[3] = system: MPTP-induced parkinsonism; assay: Antiparkinson activity in rats in 30 days administration of MPTP and the agent (locomotor activity, TruScan); type: in vivo; conditions: for general movement activity (number of movement acts) / movement activity / movement distance / movement speed / number of explored holes / number of rearings / time of exploratory activity: Wistar rats, MPTP 30 mg/kg (table; text 40 mg/kg) i.p. daily 30 days, day 30, 3 min
Description: as §1, §2
Experiments were carried out in male Wistar rats in groups of 10 mice each. Parkinson syndrome was induced by intraperitoneal administration of 40 mg/kg dose of MPTP daily during 30 days. Saline was administered to intact control group. The agent ((1R,2R,6S)-1a in 20 mg/kg dose and levodopa (the drug of comparison) in 10 mg/kg dose were administered per os 4 hours after MPTP injection daily during 30 days. Hypokinesia was evaluated on 30 day of experiment by the degree of locomotor activity using TruScan apparatus (USA) during 3 minutes.

[4] = system: MPTP-induced parkinsonism; assay: Antiparkinson activity in mice in 10 days administration of MPTP and the agent (mortality); type: in vivo; conditions: for Mortality, %: C57B1/6 mice, MPTP 30 mg/kg i.p. daily 10 days, day 11
Description: as §2
Experiments were carried out in male mice of C57B1/6 strain in groups of 10 mice each. Parkinson syndrome was induced by intraperitoneal administration of 30 mg/kg dose of MPTP daily during 10 days. The agent ((1R,2R,6S)-1a in 20 mg/kg dose and levodopa (the drug of comparison) in 10 mg/kg dose were administered per os 4 hours after MPTP injection daily during 10 days. The effect was evaluated by the number of surviving animals on the 11 day of the experiment.

white outbred mice = assay: Acute toxicity, single intragastric administration, Kerber method; conditions: mouse, in vivo
From the text: (§4) The acute toxicity of the compound 1a was studied in white outbred mice weighting 20-22 g following single intragastric administration using Kerber method.

[5] = as above; conditions: mouse, in vivo, po; white outbred mice 20-22 g, single intragastric administration, Kerber method
From the text: as §4

[6] = Table 7: C57B1/6 mice, MPTP 30 mg/kg i.p. daily 3 days, agent 20 mg/kg per os 24 h after last MPTP
[7] = Table 6: C57B1/6 mice, agent 10 mg/kg per os 15 min after
[8] = Table 6: C57B1/6 mice, agent 20 mg/kg per os 15 min after
[9] = C57B1/6 mice, MPTP 30 mg/kg i.p. 3 days, agent 20 mg/kg per os 24 h after last MPTP, 1 h after agent
[10] = C57B1/6 mice, MPTP 30 mg/kg i.p. 3 days, agent 30 mg/kg per os 24 h after last MPTP, 1 h after agent
[11] = agent 20 mg/kg per os 4 h after MPTP daily
[12] = C57B1/6 mice, agent 10 mg/kg per os 15 min after
[13] = C57B1/6 mice, agent 20 mg/kg per os 15 min after
[14] = Table 5: C57B1/6 mice, agents 20 mg/kg per os 15 min after
[15] = L-DOPA 10 mg/kg per os 4 h after MPTP daily

SMILES: C=C(C)[C@@H]1CC=C(C)[C@@H](O)[C@@H]1O [(1R,2R,6S)-1b with ee 60%, diacetate (1R,2R,6S)-3-methyl-6-(1-methylethenyl)cyclohex-3-ene-1,2-diol]
- general movement activity (number of movement acts) [1, 6]: 83.9 ± 3.5
- movement activity [1, 6]: 64.1 ± 5.0 s
- movement distance [1, 6]: 310.0 ± 35.6 cm
- movement speed [1, 6]: 2.5 ± 0.3 cm/s
- number of explored holes [1, 6]: 6.0 ± 1.0
- number of rearings [1, 6]: 10.4 ± 1.5
- time of exploratory activity [1, 6]: 3.2 ± 0.8 s
- antiparkinson activity (in words) ([1]; mice, 3 days administration of MPTP, doses 20 (and 30) mg/kg per os as stated in the sentence): remarkable antiparkinson activity
- general movement activity (number of movement acts) [2, 7]: 69.9 ± 6.7
- movement activity [2, 7]: 51.5 ± 7.5 s
- movement distance [2, 7]: 244.4 ± 4.5 cm
- movement speed [2, 7]: 2.0 ± 0.4 cm/s
- number of explored holes [2, 7]: 3.4 ± 1.1
- number of rearings [2, 7]: 6.4 ± 1.6
- time of exploratory activity [2, 7]: 1.3 ± 0.5 s
- general movement activity (number of movement acts) [2, 8]: 84.8 ± 4.4
- movement activity [2, 8]: 58.8 ± 4.5 s
- movement speed [2, 8]: 1.9 ± 0.4 cm/s
- number of explored holes [2, 8]: 3.2 ± 0.5
- number of rearings [2, 8]: 10.8 ± 1.7
- time of exploratory activity [2, 8]: 2.0 ± 0.3 s

SMILES: C=C(C)[C@@H]1CC=C(C)[C@@H](O)[C@@H]1O [(1R,2R,6S)-1a with ee 60%, (1R,2R,6S)-3-methyl-6-(1-methylethenyl)cyclohex-3-ene-1,2-diol]
- general movement activity (number of movement acts) [1, 9]: 81.9 ± 3.7
- movement activity [1, 9]: 70.1 ± 3.9 s
- movement distance [1, 9]: 351.8 ± 26.4 cm
- movement speed [1, 9]: 2.9 ± 0.2 cm/s
- number of explored holes [1, 9]: 8.8 ± 1.0
- number of rearings [1, 9]: 11.1 ± 0.9
- time of exploratory activity [1, 9]: 3.9 ± 0.5 s
- general movement activity (number of movement acts) [1, 10]: 81.8 ± 2.6
- movement activity [1, 10]: 66.8 ± 3.7 s
- movement distance [1, 10]: 335.5 ± 28.9 cm
- movement speed [1, 10]: 2.7 ± 0.2 cm/s
- number of explored holes [1, 10]: 3.8 ± 0.6
- number of rearings [1, 10]: 13 ± 1.7
- time of exploratory activity [1, 10]: 1.6 ± 0.3 s
- general movement activity (number of movement acts) [3, 11]: 81.89 ± 5.5
- movement activity [3, 11]: 62.56 ± 5.2 s
- movement distance [3, 11]: 305.58 ± 30.38 cm
- movement speed [3, 11]: 2.5 ± 0.25 cm/s
- number of explored holes [3, 11]: 4.3 ± 0.73
- number of rearings [3, 11]: 10.67 ± 1.18
- time of exploratory activity [3, 11]: 1.75 ± 0.5 s
- antiparkinson activity (in words) ([3]; rats, 20 mg/kg, 30 days administration of MPTP and the agent): remarkable antiparkinson activity
- comparison with levodopa (in words) ([3]; rats, 30 days, agent 20 mg/kg vs levodopa 10 mg/kg): as good as the drug of comparison levodopa
- general movement activity (number of movement acts) [2, 12]: 77.2 ± 5
- movement activity [2, 12]: 57 ± 5.3 s
- movement distance [2, 12]: 257.3 ± 29.5 cm
- movement speed [2, 12]: 2.1 ± 0.25 cm/s
- number of explored holes [2, 12]: 7.7 ± 1.07
- number of rearings [2, 12]: 5.8 ± 0.6
- time of exploratory activity [2, 12]: 3.6 ± 0.7 s
- general movement activity (number of movement acts) [2, 13]: 80.7 ± 4
- movement activity [2, 13]: 59 ± 4 s
- movement distance [2, 13]: 276.5 ± 24 cm
- movement speed [2, 13]: 2.25 ± 0.2 cm/s
- number of explored holes [2, 13]: 7.6 ± 1.7
- number of rearings [2, 13]: 8.5 ± 2
- time of exploratory activity [2, 13]: 4.4 ± 1 s
- antiparkinson activity (in words) [2]: remarkable antiparkinson activity
- Mortality, % [4, 11]: 10%
- effect on mortality (in words) ([4]; mice, 20 mg/kg, 10 days of administration of the agents and MPTP): considerably reduces mortality
- comparison with levodopa (in words) ([4]; mice, mortality test, agent 20 mg/kg vs levodopa 10 mg/kg): as good as the drug of comparison levodopa

SMILES: C=C(C)[C@H]1CC=C(C)[C@H](O)[C@H]1O [(1S,2S,6R)-1a with ee 97%, (1S,2S,6R)-3-methyl-6-(1-methylethenyl)cyclohex-3-ene-1,2-diol]
- general movement activity (number of movement acts) [2, 14]: 57.9 ± 6.0
- movement activity [2, 14]: 34.9 ± 4.3 s
- movement distance [2, 14]: 147.8 ± 20.3 cm
- movement speed [2, 14]: 1.13 ± 0.15 cm/s
- number of explored holes [2, 14]: 2.5 ± 0.9
- number of rearings [2, 14]: 4.4 ± 1.4
- time of exploratory activity [2, 14]: 1.2 ± 0.6 s
- antiparkinson activity (in words) [2]: remarkable antiparkinson activity

SMILES: C=C(C)C1CC=C(C)C(O)C1O (stereo not drawn) [1a, 3-methyl-6-(1-methylethenyl)cyclohex-3-ene-1,2-diol]
- acute toxicity (in words) (white outbred mice): low toxicity
- LD50 [5]: 4250 mg/kg

SMILES: N[C@@H](Cc1ccc(O)c(O)c1)C(=O)O [L-DOPA, reference compound]
- general movement activity (number of movement acts) [3, 15]: 86 ± 3.86
- movement activity [3, 15]: 65.09 ± 2.92 s
- movement distance [3, 15]: 316.77 ± 16.2 cm
- movement speed [3, 15]: 2.57 ± 0.13 cm/s
- number of explored holes [3, 15]: 4.63 ± 0.56
- number of rearings [3, 15]: 9.63 ± 1.16
- time of exploratory activity [3, 15]: 1.66 ± 0.25 s
- Mortality, % [4, 15]: 20%

SMILES: C=C(C)[C@@H]1CC=C(C)[C@@H](O)[C@@H]1O [(1R,2R,6S)-1a with ee 94%, (1R,2R,6S)-3-methyl-6-(1-methylethenyl)cyclohex-3-ene-1,2-diol]
- general movement activity (number of movement acts) [2, 14]: 78.6 ± 5.0
- movement activity [2, 14]: 64.0 ± 5.5 s
- movement distance [2, 14]: 332.6 ± 39.6 cm
- movement speed [2, 14]: 2.7 ± 0.3 cm/s
- number of explored holes [2, 14]: 3.2 ± 0.9
- number of rearings [2, 14]: 13.1 ± 2.5
- time of exploratory activity [2, 14]: 1.5 ± 0.4 s
